Measured values: patent US9611248B2, “Chemical compounds” (Syngenta Participations AG, priority 2013, dated 2017)

Tested on: a variety of test species
Test: Post-emergence herbicidal activity
Type: in vivo
Parameters: key to ABUTH (Abutilon theophrasti) damage score / AMARE (Amaranthus retroflexus) damage score / ALOMY (Alopecurus myosuroides) damage score / ECHCG (Echinochloa crus-galli) damage score / ZEAMX (Zea mays) damage score / SOLNI (Solanum nigrum) damage score: 0 = no damage to plant, 5 = total damage to plant
Settings: evaluated after 13 days
Method in brief: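 Damage on a 0–5 scale (5 = plant killed) was rated 13 days after treatment. Test species had been sown in standard soil and raised 8 days under glasshouse conditions of 24/16 °C, 14 h light, 65% humidity. They were then sprayed with aqueous solution from an acetone/water 50:50 formulation containing 0.5% Tween 20.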

| Structure (SMILES) | ABUTH (Abutilon theophrasti) damage score (rate 250 g/ha) | ALOMY (Alopecurus myosuroides) damage score (rate 250 g/ha) | AMARE (Amaranthus retroflexus) damage score (rate 250 g/ha) | ECHCG (Echinochloa crus-galli) damage score (rate 250 g/ha) | SETFA (Setaria faberi) damage score (rate 250 g/ha) | ZEAMX (Zea mays) damage score (rate 250 g/ha) | ABUTH (Abutilon theophrasti) damage score (rate 1000 g/ha) | ALOMY (Alopecurus myosuroides) damage score (rate 1000 g/ha) | AMARE (Amaranthus retroflexus) damage score (rate 1000 g/ha) | ECHCG (Echinochloa crus-galli) damage score (rate 1000 g/ha) | SETFA (Setaria faberi) damage score (rate 1000 g/ha) | ZEAMX (Zea mays) damage score (rate 1000 g/ha) |
| --- | --- | --- | --- | --- | --- | --- | --- | --- | --- | --- | --- | --- |
| COC1=C(C)C(=O)N(c2cc(C(F)(F)F)c(OCCOCc3ccccc3)cn2)C1O (stereo not drawn) [AD81] | 5 | 2 | 5 | 2 | 3 | 1 |  |  |  |  |  |  |
| COC1=C(C)C(=O)N(c2cc(C(F)(F)F)c(OCc3ccccc3)cn2)C1O (stereo not drawn) [AD82] |  |  |  |  |  |  | 4 | 2 | 5 | 3 | 5 | 1 |
| COCCCOc1cnc(N2C(=O)C(C)=C(OC)C2O)cc1C(F)(F)F (stereo not drawn) [AD83] |  |  |  |  |  |  | 5 | 4 | 5 | 5 | 5 | 1 |
| COC1=C(C)C(=O)N(c2cc(C(F)(F)F)c(OCCCc3ccccc3)cn2)C1O (stereo not drawn) [AD84] |  |  |  |  |  |  | 2 | 1 | 5 | 2 | 4 | 1 |
| COC1=C(C)C(=O)N(c2cc(C(F)(F)F)c(OCCc3ccccc3)cn2)C1O (stereo not drawn) [AD85] | 5 | 2 | 5 | 2 | 4 | 1 |  |  |  |  |  |  |
| COC1=C(C)C(=O)N(c2cc(C(F)(F)F)c(OCc3ccco3)cn2)C1O (stereo not drawn) [AD86] | 4 | 2 | 5 | 1 | 3 | 0 |  |  |  |  |  |  |
| COC1=C(C)C(=O)N(c2cc(C(F)(F)F)c(OCCc3ccsc3)cn2)C1O (stereo not drawn) [AD87] | 4 | 3 | 5 | 2 | 3 | 1 |  |  |  |  |  |  |
| COC1=C(C)C(=O)N(c2cc(C(F)(F)F)c(Oc3ccccc3)cn2)C1O (stereo not drawn) [AD88] |  |  |  |  |  |  | 5 | 3 | 5 | 4 | 5 | 1 |
| COC1=C(C)C(=O)N(c2cc(C(C)C)c(C(=O)NC(C)(C)C)cn2)C1O (stereo not drawn) [AD89] |  |  |  |  |  |  | 5 | 5 | 5 | 5 | 5 | 3 |
| COC1=C(C)C(=O)N(c2cc(C)c(NC(=O)C(C)(C)C)cn2)C1O (stereo not drawn) [AD90] |  |  |  |  |  |  | 5 | 5 | 5 | 5 | 5 | 2 |
| COC1=C(C)C(=O)N(c2cc(C)c(S(=O)(=O)N3CCOCC3)cn2)C1O (stereo not drawn) [AD91] |  |  |  |  |  |  | 0 | 0 | 2 | 0 | 0 | 2 |
| CCN(CC)C(=O)c1cnc(N2C(=O)C(C)=C(OC)C2O)cc1C(F)(F)F (stereo not drawn) [AD92] |  |  |  |  |  |  | 5 | 4 | 4 | 5 | 4 | 3 |
| COC1=C(C)C(=O)N(c2cc(C(F)(F)F)c(SCc3ccccc3)cn2)C1O (stereo not drawn) [AD93] |  |  |  |  |  |  | 3 | 2 | 4 | 3 | 4 | 0 |
| COC1=C(C)C(=O)N(c2cc(C)c(S(=O)(=O)NC(C)(C)C)cn2)C1O (stereo not drawn) [AD94] |  |  |  |  |  |  | 1 | 1 | 0 | 1 | 1 | 0 |
| COC1=C(C)C(=O)N(c2cc(C)c(S(=O)(=O)NC(C)C)cn2)C1O (stereo not drawn) [AD95] |  |  |  |  |  |  | 5 | 4 | 5 | 4 | 5 | 0 |
